The target in one experiment is T1, AGT-Ma (Homo sapiens, UniProt P21549, S158L).
T1 sequence (P21549 1-392 S158L): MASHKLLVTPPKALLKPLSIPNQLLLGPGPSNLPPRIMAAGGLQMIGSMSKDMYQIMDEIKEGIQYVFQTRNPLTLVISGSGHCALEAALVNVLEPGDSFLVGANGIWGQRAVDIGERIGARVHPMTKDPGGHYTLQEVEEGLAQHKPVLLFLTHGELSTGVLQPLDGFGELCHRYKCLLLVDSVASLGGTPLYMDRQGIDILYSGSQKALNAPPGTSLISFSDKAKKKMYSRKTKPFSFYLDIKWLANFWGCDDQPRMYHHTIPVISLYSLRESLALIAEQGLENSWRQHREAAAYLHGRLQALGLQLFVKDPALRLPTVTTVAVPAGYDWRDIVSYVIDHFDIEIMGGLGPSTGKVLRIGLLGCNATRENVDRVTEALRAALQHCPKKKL
Put plainly: CD signal at […] nm titration of apoenzyme. It is filed as binding.

Another experiment concerns the target T2, AGT-Mi (Homo sapiens, UniProt P21549, G350D/I340M/P11L).
T2 sequence (P21549 1-392 P11L/I340M/G350D): T1 sequence (P21549 1-392 S158L) with P11L, L158S, I340M, G350D
In words: quenching of intrinsic fluorescence of apoenzyme. It is filed as binding.

The values that follow come from publication PMC3271384 (Molecular Genetics and Metabolism, 2012).

Changes are numbered by the printed parent chain.

The Kd is the concentration at which binding is half-saturated. As for `Cc1ncc(COP(=O)(O)O)c(C=O)c1O` [PLP], the Kd at AGT-Ma came out at 272 ± 47 µM; on AGT-Mi, 0.031 ± 0.005 µM.
